Values after ≈ are worked out from the molar mass of the structure shown. Where two headings read alike, the source gives them in different places. Values belong to the compound of their own block, whether it stands above or below them.
Experiments:
Type in all cases: physicochemical
[1] = solubilization of Forms A and B in 1% creams; examination for crystals after manufacturing and storage; settings: room temperature; estimated
Description: a) The solubility of Form A in a cream formulation is estimated to be about 1% at room temperature. In the manufacturing of cream, the drug substance is completely dissolved in the oily phase at 60-75°. To assess whether and after which storage time part of the drug substance dissolved will crystallize from the 1% cream, a series of batches is examined for crystals.
The drug substance used in the batches and preformulations mentioned above contained 100% Form A.
b) To assess whether drug substance containing Form B can be completely dissolved in the manufacturing of cream and to evaluate the long-term crystallization behaviour, several preformulations (cream, 1%) containing 0%, 1%, 5% and 10% Form B relative to the total content of compound of formula I are manufactured and put on stability testing at different temperatures.
(§1) During the preparation of these preformulations, it is observed that the solving speed of crystal Form B in the oily phase of the cream is much slower than that of crystal Form A. Immediately after manufacturing, the forms are investigated and no remaining crystals are observed.
To get information about the long-term crystallization behaviour of these forms, the stability samples are further investigated after 6 weeks, 3, 6 and 9 months storage.

[2] = solubility of the crystal forms in water and organic solvents
[3] = solubility in the oil phase of cream (oleyl alcohol/miglyol 812 4:6)
[4] = dissolution in the oil phase in the preparation of a cream; settings: for time to dissolve in the oil phase: preparation of a cream
Description: The availability of well-defined crystalline forms of the compound of formula I is therefore particularly indicated for use in the preparation of galenical forms of the compound where it is indicated to overcome the above disadvantages, such as in the preparation of topical forms, e.g. creams, emulsions and ointments where it is desired to include the compound normally in dissolved state but under carefully controlled conditions. Thus in the preparation of a cream, it has been observed that Form A dissolves in the oil phase in about 10 minutes, whereas for Form B it takes about 6 hours.
as §1

[5] = hygroscopicity (uptake determined by thermogravimetry)
Description: hygroscopicity (uptake determined by thermogravimetry): 1.49% (1 day, 92% r.h.); 1.78% (1 week, 25° C., 75% r.h.); hygroscopicity(uptake determined by thermogravimetry): 1 day, 92% r.h. and 1 week, 25° C., 75% r.h.: none;

[6] = thermodynamic stability of the crystal forms; settings: compared with Form A

solubility in a cream formulation [1]: about 1% | solubility ([2]; acetone, 25 °C, organic solvent or mixture, at 25° C., read-out: solubility in acetone): > 50 mg/mL | solubility ([2]; acetonitrile, 25 °C, organic solvent or mixture, at 25° C., read-out: solubility in acetonitrile): > 50 mg/mL | solubility in diethylether ([2]; at 5° C.): > 100 mg/mL | solubility in diisopropyl ether ([2]; at 5° C.): > 100 mg/mL | solubility in ethanol ([2]; at 5° C.): > 100 mg/mL | solubility in hexane ([2]; at 5° C.): < 10 mg/mL | solubility in methanol ([2]; at 5° C.): > 100 mg/mL | solubility in water ([2]; at 5° C., result in words): insoluble | solubility in water ([2]; at 25° C.): < 1 mg/mL | solubility ([2]; ethanol, 25 °C, organic solvent or mixture, at 25° C., read-out: solubility in ethanol): > 50 mg/mL | solubility ([2]; ethyl acetate, 5 °C, organic solvent or mixture, at 5° C., read-out: solubility in ethyl acetate): > 100 mg/mL | solubility ([2]; ethyl acetate, 25 °C, organic solvent or mixture, at 25° C., read-out: solubility in ethyl acetate): > 50 mg/mL | solubility ([2]; isopropanol, 25 °C, organic solvent or mixture, at 25° C., read-out: solubility in isopropanol): > 50 mg/mL | solubility ([2]; methanol, 25 °C, organic solvent or mixture, at 25° C., read-out: solubility in methanol): > 50 mg/mL | solubility in the oil phase of cream [3]: 2.49% | time to dissolve in the oil phase [4]: about 10 minutes | hygroscopicity (uptake determined by thermogravimetry) ([5]; 1 week, 25° C., 75% r.h.): 1.78% | hygroscopicity (uptake determined by thermogravimetry) ([5]; 1 day, 92% r.h.): 1.49%
Compound: CC[C@@H]1/C=C(\C)C[C@H](C)C[C@H](OC)[C@H]2O[C@@](O)(C(=O)C(=O)N3CCCC[C@H]3C(=O)O[C@H](/C(C)=C/[C@@H]3CC[C@H](Cl)[C@H](OC)C3)[C@H](C)[C@@H](O)CC1=O)[C@H](C)C[C@@H]2OC [Form A, 33-epichloro-33-desoxyascomycin]

solubility in diethylether ([2]; at 5° C.): 9.3 mg/mL (≈ 11.5 mM) | solubility in diisopropyl ether ([2]; at 5° C.): 1.9 mg/mL (≈ 2.34 mM) | solubility in ethanol ([2]; at 5° C.): 18.1 mg/mL (≈ 22.3 mM) | solubility in ethyl acetate ([2]; at 5° C.): > 50 mg/mL | solubility in hexane ([2]; at 5° C.): 0.8 mg/mL (≈ 0.987 mM) | solubility in methanol ([2]; at 5° C.): 46.3 mg/mL (≈ 57.1 mM) | solubility in ethanol ([2]; at 25° C.): 34.4 mg/mL (≈ 42.4 mM) | solubility in ethyl acetate ([2]; at 25° C.): > 50 mg/mL | solubility in methanol ([2]; at 25° C.): > 50 mg/mL | solubility in water ([2]; at 25° C.): 0.4 mg/mL (≈ 0.494 mM) | solubility ([2]; diethyl ether, 25 °C, organic solvent or mixture, at 25° C., read-out: solubility in diethyl ether): 16.3 mg/mL (≈ 20.1 mM) | solubility ([2]; diisopropyl ether, 25 °C, organic solvent or mixture, at 25° C., read-out: solubility in diisopropyl ether): 3.1 mg/mL (≈ 3.82 mM) | solubility ([2]; hexane, 25 °C, organic solvent or mixture, at 25° C., read-out: solubility in hexane): 1.5 mg/mL (≈ 1.85 mM) | solubility ([2]; water, 5 °C, water, at 5° C., read-out: solubility in water): 0.3 mg/mL (≈ 0.37 mM) | solubility in the oil phase of cream [3]: 0.37% | solving speed in the oily phase of the cream ([4]; preparation of 1% cream preformulations, compared with Form A): much slower | time to dissolve in the oil phase [4]: about 6 hours | hygroscopicity (uptake determined by thermogravimetry) ([5]; 1 week, 25° C., 75% r.h., result in words): none | hygroscopicity (uptake determined by thermogravimetry) ([5]; 1 day, 92% r.h., result in words): none
Compound: CC[C@@H]1/C=C(\C)C[C@H](C)C[C@H](OC)[C@H]2O[C@@](O)(C(=O)C(=O)N3CCCC[C@H]3C(=O)O[C@H](/C(C)=C/[C@@H]3CC[C@H](Cl)[C@H](OC)C3)[C@H](C)[C@@H](O)CC1=O)[C@H](C)C[C@@H]2OC [Form B, 33-epichloro-33-desoxyascomycin]
thermodynamic stability [6]: thermodynamically a more stable form than Form A
